Converted amounts (≈) assume the structure as drawn. The source made the active and inactive calls. The rule behind the calls is not given here.
Key:
Format in all cases: functional
KB = test: Cytotoxicity against human KB cells
A549 = test: Cytotoxicity against human A549 cells
HCT-8 = test: Cytotoxicity against human HCT8 cells
P388 = test: Cytotoxicity against mouse P388 cells
L1210 = test: Cytotoxicity against mouse L1210 cells
[1] = read-out: ED50 (the source's name)

Row | SMILES | EC50 (KB; [1]) | EC50 (A549; [1]) | EC50 (HCT-8; [1]) | EC50 (P388; [1]) | EC50 (L1210; [1]) | Activity (KB) | Activity (A549) | Activity (HCT-8) | Activity (P388) | Activity (L1210)
1 | O=C1c2ccccc2-c2c3c(cc4ccnc1c24)OCO3 [LIRIODENINE] | 1 µg/mL (≈ 3.63 µM) | 0.72 µg/mL (≈ 2.62 µM) | 0.7 µg/mL (≈ 2.54 µM) | 0.57 µg/mL (≈ 2.07 µM) | 2.33 µg/mL (≈ 8.46 µM) |  |  |  |  | 
2 | O[C@H]1c2ccccc2-c2c3c(cc4c2[C@@H]1NCC4)OCO3 |  |  |  |  |  | inactive | inactive | inactive | inactive | inactive
3 | C[N+]1([O-])CCc2cc3c(c4c2[C@H]1[C@@H](O)c1ccccc1-4)OCO3 (stereo not given in full) |  |  |  |  |  | inactive | inactive | inactive | inactive | inactive
4 | COc1cc2c(cc1OC)-c1nccc(C)c1C2=O |  |  |  |  |  | inactive | inactive | inactive | inactive | inactive
5 | COc1cc2c(cc1O)C(=O)c1c(C)ccnc1-2 |  |  |  |  |  | inactive | inactive | inactive | inactive | inactive
6 | COc1c(O)cc2c(c1OC)-c1nccc(C)c1C2=O |  |  |  |  |  | inactive | inactive | inactive | inactive | inactive
